Read-outs that look alike come from different tables or passages of the source.
Assays:
[1] = ref SCCS 2022; cited from earlier work
rats = conditions: cited from earlier work
HepaRG cells = test: Transcriptomics (TempO-Seq, BMD analysis) in HepaRG cells; type: cell-based
Procedure: These differed with respect to the number of genes passing all filters in each pathway (3 versus 5 genes). […] Therefore, we captured pathways which fulfilled both criteria.
HepG2 (human hepatoblastoma) , MCF-7 (human breast adenocarcinoma) cells supplied by
Public Health England European Collection of Cell Cultures (ECACC, Salisbury, UK). Differentiated
HepaRG cells (HPR116, Lot HPR116239 -TA08) were from Biopredic International (Rennes, France).
Test chemicals were prepared in DMSO as serial dilutions, resulting in concentrations in media of
biological replicates were treated with the appropriate dose of co mpound for 24 h prior to cell lysis.
Biospyder human whole genome panel version 1 (https://biospyder.com).
Gene normalization and analysis
expression values for each probe were normalized by applying DESEQ2 normalization. A pseudo-
read-count of 1.0 was added to each normalized expression value, and then the values were log2
transformed . Analyses performed included Gene and Pathway, Dose Response and Network
monotonic increasing/decreasing trend were those which confirmed to the criteria : William’s trend
Those genes were then used in categorical (pathway) analysis for the Gene Ontology (GO) terms and
REACTOME pathways. Significant dose responsive pathways were determined according to : Fisher’s

TSHR = system: TSHR; design: method as in ToxCast; conditions: ref ToxCast; cited from earlier work; note: key: Pos = positive result; Neg = negative result; Inc = uncertain/inconclusive result
Transthyretin (TTR) = Transthyretin (TTR) (Homo sapiens, UniProt P02766)
Procedure: DMSO (1% compound stock in incubation mixture). The incubation mixture was transferred to 96 -
was measured on a Berthold luminometer.
Serial dilutions of the compounds were incubated in Tris -buffer (pH 8.0) overnight at 4°C in the
incubation mixture). After incubation, TTR-bound and free T4 were separated on a Bio-Gel P-6DG
column. The eluate was added to assay medium after which TRβ CALUX cells were exposed for 24 h
(see CALUX bioassays). For this TRβ CALUX exposure, serum-free assay medium was used.

Monooxygenase = system: Monooxygenase; design: method as in ToxCast; conditions: ref ToxCast, cited from earlier work; for Thyroid pathway: Monooxygenase (Not AOP), Call: key: Pos = positive result; Neg = negative result; Inc = uncertain/inconclusive result
HepG2 cells = test: cells; type: cell-based; conditions: for AC50: Homo sapiens, HepG2, 24 h
MAO-A = biological target: T1, MAO-A (Rattus norvegicus, UniProt P21396); test: Pharmacology profiling: MAO-A (antagonist RL); type: binding; conditions: read-out: MAO-A (antagonist RL): % inhibition @10 µM
T1 sequence (P21396 1-526): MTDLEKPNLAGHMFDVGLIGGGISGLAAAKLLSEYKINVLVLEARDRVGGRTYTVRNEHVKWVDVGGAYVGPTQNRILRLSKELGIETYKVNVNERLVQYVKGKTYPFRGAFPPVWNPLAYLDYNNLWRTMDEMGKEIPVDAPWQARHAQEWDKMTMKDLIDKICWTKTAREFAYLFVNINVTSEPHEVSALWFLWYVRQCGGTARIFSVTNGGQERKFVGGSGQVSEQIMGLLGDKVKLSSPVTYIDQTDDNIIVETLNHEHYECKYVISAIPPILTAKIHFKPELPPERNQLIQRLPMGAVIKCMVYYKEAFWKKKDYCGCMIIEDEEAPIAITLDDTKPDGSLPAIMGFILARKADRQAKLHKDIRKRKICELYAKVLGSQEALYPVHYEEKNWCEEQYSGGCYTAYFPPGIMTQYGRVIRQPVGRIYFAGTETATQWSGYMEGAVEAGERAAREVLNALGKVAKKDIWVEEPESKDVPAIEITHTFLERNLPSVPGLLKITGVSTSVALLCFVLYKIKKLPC
Procedure: Chemicals that are flagged for a target are tested in follow-up dose-response assays to establish potency of the interaction.
Pharmacology profiling assays
targets. The list of targets included the original panel of 44 targets (including receptors, ion channels,
transporters and enzymes) recommended by 4 major pharmaceutical companies as significant
reasoned to link to pathological effects. Results showing an inhibition or stimulation higher than 50%
are considered to represent significant effects (i.e. a “hit”).
and 50% are indicative of weak to moderate effects and results showing an inhibition (or stimulation)
around the control level. For several targets, additional concentration effect assays were conducted to
determine the potency (IC50). The concentrations tested (in duplicate) ranged between 30 nM and 100

[2] = HepaRG, 24 h, pathway differs per chemical

Compound: O=c1c(-c2ccc(O)cc2)coc2cc(O)cc(O)c12 [Genistein, 5,7-DIHYDROXY-3-(4-HYDROXYPHENYL)-4-BENZOPYRONE]
- In vitro Comet assay result [1]: positive, and four were negative
- NOAEL, 13 weeks (rats; male and female rats, feed 0, 5, 50 or 500 mg/kg/day, ref McClain et al. 2006): 50 mg/kg/day
- NOAEL, 52 weeks (rats; male and female rats, feed, based on mild hepatic effects, ref McClain et al. 2006): 50 mg/kg/day
- NOAEL from repeat dose studies (rats; ref McClain et al., 2006): above 50 mg/kg/day
- BMD/NOEC, gene pathway deregulation (HepaRG cells; HepaRG cells): 40.0 nM
- Lowest median BMD, 3 genes passing all filters (HepaRG cells; [2]): 0.040 µM
- Lowest median BMD, >5 genes passing all filters (HepaRG cells; [2]): 0.051 µM
- BMD relating to estrogen effects (HepaRG cells; HepaRG, 24 h, pathway named in the cell): 0.11- Estrogen-dependent gene expression ↑ µM
- Thyroid pathway: Regulation of transcription factor activity (TSHR), Call (TSHR): Neg
- TTR LOEC, Inhibition of binding of T4 to TTR (Transthyretin (TTR)): 0.21 µM
- TTR binding (thyroid) LOEC, +S9 (Transthyretin (TTR); +S9 (preincubation with rat liver S9)): −6.7 Log M
- LOEC for inhibition of TTR binding (Transthyretin (TTR); inhibition of binding of T4 to TTR): 2.1 × 10^−7 ± 6.7 × 10^−8
- TTR binding (thyroid) LOEC, −S9 (Transthyretin (TTR); −S9): −6.7 Log M
- Thyroid pathway: Monooxygenase (Not AOP), Call (Monooxygenase): Pos
- AC50 (Monooxygenase; read-out: Thyroid pathway: Monooxygenase (Not AOP), AC50): 9.44 µM
- AhR Translocation: Effect (HepG2 cells): increase
- Apoptosis & necrosis: caspase 3/7: Effect (HepG2 cells): increase
- Apoptosis & necrosis: cell cycle arrest: Effect (HepG2 cells): decrease
- Cellular ATP: Effect (HepG2 cells): decrease
- DNA damage: Phospho-p53: Effect (HepG2 cells): increase
- DNA damage: p-H2AX: Effect (HepG2 cells): increase
- ER stress panel 1: ER integrity: Effect (HepG2 cells): increase
- ER stress panel 1: XBP1: Effect (HepG2 cells): increase
- ER stress panel 2: CHOP: Effect (HepG2 cells): increase
- Inflammation & pH: HIF1α: Effect (HepG2 cells): increase
- Inflammation & pH: ICAM-1: Effect (HepG2 cells): increase
- Inflammation & pH: intracellular pH: Effect (HepG2 cells): increase
- Metal stress: MTF1: Effect (HepG2 cells): decrease
- Mitochondrial mass: Effect (HepG2 cells): increase
- Mitochondrial membrane potential: Effect (HepG2 cells): decrease
- Nuclear size: Effect (HepG2 cells): increase
- Osmotic & heat shock: NFAT: Effect (HepG2 cells): increase
- Oxidative stress: HMOX1: Effect (HepG2 cells): increase
- Oxidative stress: NRF2: Effect (HepG2 cells): increase
- Seahorse assay: Extracellular acidification rate (ECAR): Effect (HepG2 cells): decrease
- Seahorse assay: oxygen consumption rate (OCR): Effect (HepG2 cells): decrease
- Seahorse assay: reserve capacity: Effect (HepG2 cells): decrease
- AC50 (HepG2 cells; read-out: AhR Translocation: AC50): > 100 µM
- AC50 (HepG2 cells; read-out: Apoptosis & necrosis: caspase 3/7: AC50): > 100 µM
- AC50 (HepG2 cells; read-out: Apoptosis & necrosis: cell cycle arrest: AC50): > 100 µM
- AC50 (HepG2 cells; read-out: Cellular ATP: AC50): > 100 µM
- AC50 (HepG2 cells; read-out: DNA damage: Phospho-p53: AC50): > 100 µM
- AC50 (HepG2 cells; read-out: DNA damage: p-H2AX: AC50): > 100 µM
- AC50 (HepG2 cells; read-out: ER stress panel 1: ER integrity: AC50): > 100 µM
- AC50 (HepG2 cells; read-out: ER stress panel 1: XBP1: AC50): 40.4 µM
- AC50 (HepG2 cells; read-out: ER stress panel 2: CHOP: AC50): > 100 µM
- AC50 (HepG2 cells; read-out: Inflammation & pH: HIF1α: AC50): > 100 µM
- AC50 (HepG2 cells; read-out: Inflammation & pH: ICAM-1: AC50): > 100 µM
- AC50 (HepG2 cells; read-out: Inflammation & pH: intracellular pH: AC50): > 100 µM
- AC50 (HepG2 cells; read-out: Metal stress: MTF1: AC50): > 100 µM
- AC50 (HepG2 cells; read-out: Mitochondrial mass: AC50): > 100 µM
- AC50 (HepG2 cells; read-out: Mitochondrial membrane potential: AC50): 69.6 µM
- AC50 (HepG2 cells; read-out: Nuclear size: AC50): > 100 µM
- AC50 (HepG2 cells; read-out: Osmotic & heat shock: NFAT: AC50): > 100 µM
- AC50 (HepG2 cells; read-out: Oxidative stress: HMOX1: AC50): > 100 µM
- AC50 (HepG2 cells; read-out: Oxidative stress: NRF2: AC50): > 100 µM
- AC50 (HepG2 cells; read-out: Seahorse assay: Extracellular acidification rate (ECAR): AC50): > 100 µM
- AC50 (HepG2 cells; read-out: Seahorse assay: oxygen consumption rate (OCR): AC50): > 100 µM
- AC50 (HepG2 cells; read-out: Seahorse assay: reserve capacity: AC50): > 100 µM
- AhR Translocation: MEC (HepG2 cells; human, 24 h): 51.2 µM
- Apoptosis & necrosis: caspase 3/7: MEC (HepG2 cells; human, 24 h): 49.8 µM
- Apoptosis & necrosis: cell cycle arrest: MEC (HepG2 cells; human, 24 h): 35.8 µM
- Cell stress LOEC, ↓ in mitochondrial membrane potential (HepG2 cells; human, 24 h): 11.6 µM
- Cellular ATP: MEC (HepG2 cells; human, 24 h): 31.5 µM
- DNA damage: Phospho-p53: MEC (HepG2 cells; human, 24 h): 22.8 µM
- DNA damage: p-H2AX: MEC (HepG2 cells; human, 24 h): 13.4 µM
- ER stress panel 1: ER integrity: MEC (HepG2 cells; human, 24 h): 23.3 µM
- ER stress panel 1: XBP1: MEC (HepG2 cells; human, 24 h): 40.9 µM
- ER stress panel 2: CHOP: MEC (HepG2 cells; human, 24 h): 69.0 µM
- Inflammation & pH: HIF1α: MEC (HepG2 cells; human, 24 h): 44.8 µM
- Inflammation & pH: ICAM-1: MEC (HepG2 cells; human, 24 h): 34.4 µM
- Inflammation & pH: intracellular pH: MEC (HepG2 cells; human, 24 h): 50.6 µM
- Metal stress: MTF1: MEC (HepG2 cells; human, 24 h): 25.5 µM
- Mitochondrial mass: MEC (HepG2 cells; human, 24 h): 15.0 µM
- Mitochondrial membrane potential: MEC (HepG2 cells; human, 24 h): 11.6 µM
- Nuclear size: MEC (HepG2 cells; human, 24 h): 25.2 µM
- Osmotic & heat shock: NFAT: MEC (HepG2 cells; human, 24 h): 49.4 µM
- Oxidative stress: HMOX1: MEC (HepG2 cells; human, 24 h): 29.9 µM
- Oxidative stress: NRF2: MEC (HepG2 cells; human, 24 h): 29.9 µM
- Seahorse assay: Extracellular acidification rate (ECAR): MEC (HepG2 cells; human, 24 h): 27.7 µM
- Seahorse assay: oxygen consumption rate (OCR): MEC (HepG2 cells; human, 24 h): 41.5 µM
- Seahorse assay: reserve capacity: MEC (HepG2 cells; human, 24 h): 34.8 µM
- inhibition at 10 µM (MAO-A): 86%

From paper PMC11220827 (Frontiers in Pharmacology, 2024)
